Tests used:
Format in all cases: in vivo
[1] = test system: goosegrass (Eleusine indica); assay: Test C preemergence, goosegrass; details: 0 is no effect, 100 is complete control
Source text: (§1) Seeds of plant species selected from blackgrass (Alopecurus myosuroides), corn (Zea mays), foxtail, giant (giant foxtail, Setaria faberi), goosegrass (Eleusine indica), kochia (Bassia scoparia), oat, wild (wild oat, Avena fatua), pigweed, palmer (palmer amaranth, Amaranthus palmeri), ragweed (common ragweed, Ambrosia artemisiifolia), ryegrass, Italian (Italian ryegrass, Lolium multiflorum), soybean (Glycine max) and wheat (Triticum aestivum) were planted into a blend of loam soil and sand and treated preemergence with a directed soil spray using test chemicals formulated in a non-phytotoxic solvent mixture which included a surfactant.
(§2) At the same time, plants selected from these crop and weed species and also galium (catchweed bedstraw, Galium aparine) and horseweed (Erigeron canadensis) were planted in pots containing the same blend of loam soil and sand and treated with postemergence applications of test chemicals formulated in the same manner. Plants ranged in height from 2 to 10 cm and were in the one- to two-leaf stage for the postemergence treatment. Treated plants and untreated controls were maintained in a greenhouse for 10 or 12 days, after which time all treated plants were compared to untreated controls and visually evaluated for injury. Plant response ratings, summarized in Table A, are based on a 0 to 100 scale where 0 is no effect and 100 is complete control. A dash (-) response means no test result.

[2] = test system: wheat (Triticum aestivum); assay: Test C postemergence, wheat; details: visual injury, 0 to 100 scale (0 no effect, 100 complete control)
Source text: as §1, §2

[3] = test system: oat, wild (wild oat, Avena fatua); assay: Test C postemergence, wild oat; details: visual injury, 0 to 100 scale (0 no effect, 100 complete control)
Source text: as §1, §2

[4] = test system: foxtail, giant (giant foxtail, Setaria faberi); assay: Test C preemergence, giant foxtail; details: 0 is no effect, 100 is complete control
Source text: as §1, §2

corn (Zea mays) [5] = assay: Test C preemergence, corn; details: 0 is no effect, 100 is complete control
Source text: as §1, §2

[6] = test system: foxtail, giant (giant foxtail, Setaria faberi); assay: Test C postemergence, giant foxtail; details: visual injury, 0 to 100 scale (0 no effect, 100 complete control)
Source text: as §1, §2

[7] = test system: oat, wild (wild oat, Avena fatua); assay: Test C preemergence, wild oat; details: 0 is no effect, 100 is complete control
Source text: as §1, §2

[8] = test system: ryegrass, Italian (Italian ryegrass, Lolium multiflorum); assay: Test C postemergence, Italian ryegrass; details: visual injury, 0 to 100 scale (0 no effect, 100 complete control)
Source text: as §1, §2

[9] = test system: horseweed (Erigeron canadensis); assay: Test C postemergence, horseweed; details: visual injury, 0 to 100 scale (0 no effect, 100 complete control)
Source text: as §1, §2

[10] = test system: ryegrass, Italian (Italian ryegrass, Lolium multiflorum); assay: Test C preemergence, Italian ryegrass; details: 0 is no effect, 100 is complete control
Source text: as §1, §2

[11] = test system: goosegrass (Eleusine indica); assay: Test C postemergence, goosegrass; details: visual injury, 0 to 100 scale (0 no effect, 100 complete control)
Source text: as §1, §2

[12] = test system: ragweed (common ragweed, Ambrosia artemisiifolia); assay: Test C preemergence, ragweed; details: 0 is no effect, 100 is complete control
Source text: as §1, §2

kochia (Bassia scoparia) [13] = assay: Test C postemergence, kochia; details: visual injury, 0 to 100 scale (0 no effect, 100 complete control)
Source text: as §1, §2

[14] = test system: sedge, umbrella (small-flower umbrella sedge, Cyperus difformis); assay: Test D flooded paddy test, umbrella sedge; set-up: key: 0 = no effect, 100 = complete control; details: 250 g ai/ha, Flood; applied to paddy water at 2-leaf stage; visual rating after 13 days; scale 0 (no effect) to 100 (complete control)
Experimental: (§3) Plant species in the flooded paddy test selected from barnyardgrass (Echinochloa crusgalli), ducksalad (Heteranthera limosa), rice (Oryza sativa), and sedge, umbrella (small-flower umbrella sedge, Cyperus difformis) were grown to the 2-leaf stage for testing. At time of treatment, test pots were flooded to 3 cm above the soil surface, treated by application of test compounds directly to the paddy water, and then maintained at that water depth for the duration of the test. Treated plants and controls were maintained in a greenhouse for 13 days, after which time all species were compared to controls and visually evaluated. Plant response ratings, summarized in Table B, are based on a scale of 0 to 100 where 0 is no effect and 100 is complete control. A dash (-) response means no test result.

[15] = test system: pigweed, palmer (palmer amaranth, Amaranthus palmeri); assay: Test C preemergence, palmer amaranth; details: 0 is no effect, 100 is complete control
Source text: as §1, §2

[16] = test system: wheat (Triticum aestivum); assay: Test C preemergence, wheat; details: 0 is no effect, 100 is complete control
Source text: as §1, §2

soybean (Glycine max) [17] = assay: Test C preemergence, soybean; details: 0 is no effect, 100 is complete control
Source text: as §1, §2

soybean (Glycine max) [18] = assay: Test C postemergence, soybean; details: visual injury, 0 to 100 scale (0 no effect, 100 complete control)
Source text: as §1, §2

[19] = test system: blackgrass (Alopecurus myosuroides); assay: Test C postemergence, blackgrass; details: visual injury, 0 to 100 scale (0 no effect, 100 complete control)
Source text: as §1, §2

corn (Zea mays) [20] = assay: Test C postemergence, corn; details: visual injury, 0 to 100 scale (0 no effect, 100 complete control)
Source text: as §1, §2

[21] = test system: pigweed, palmer (palmer amaranth, Amaranthus palmeri); assay: Test C postemergence, palmer amaranth; details: visual injury, 0 to 100 scale (0 no effect, 100 complete control)
Source text: as §1, §2

[22] = test system: ducksalad (Heteranthera limosa); assay: Test D flooded paddy test, ducksalad; set-up: key: 0 = no effect, 100 = complete control; details: 250 g ai/ha, Flood; applied to paddy water at 2-leaf stage; visual rating after 13 days; scale 0 (no effect) to 100 (complete control)
Experimental: as §3

[23] = test system: ragweed (common ragweed, Ambrosia artemisiifolia); assay: Test C postemergence, ragweed; details: visual injury, 0 to 100 scale (0 no effect, 100 complete control)
Source text: as §1, §2

rice (Oryza sativa) = assay: Test D flooded paddy test, rice; set-up: key: 0 = no effect, 100 = complete control; details: 250 g ai/ha, Flood; applied to paddy water at 2-leaf stage; visual rating after 13 days; scale 0 (no effect) to 100 (complete control)
Experimental: as §3

kochia (Bassia scoparia) [24] = assay: Test C preemergence, kochia; details: 0 is no effect, 100 is complete control
Source text: as §1, §2

[25] = test system: barnyardgrass (Echinochloa crusgalli); assay: Test D flooded paddy test, barnyardgrass; set-up: key: 0 = no effect, 100 = complete control; details: 250 g ai/ha, Flood; applied to paddy water at 2-leaf stage; visual rating after 13 days; scale 0 (no effect) to 100 (complete control)
Experimental: as §3

## Cc1cc(C)c(N(COC(=O)C(C)(C)C)S(=O)(=O)C(F)(F)F)cc1N1CCC(OCC2CC2)C1=O (stereo not drawn) [Compound 53]
[1]; 31 g ai/ha Preemergence
  Plant response rating (0 to 100 scale), Goosegrass: 60
[1]; 125 g ai/ha Preemergence
  Plant response rating (0 to 100 scale), Goosegrass: 100
[2]; 31 g ai/ha Postemergence
  Wheat plant response rating: 40
[2]; 125 g ai/ha Postemergence
  Wheat plant response rating: 80
[3]; 31 g ai/ha Postemergence
  Oat, Wild plant response rating: 10
[3]; 125 g ai/ha Postemergence
  Oat, Wild plant response rating: 50
[4]; 31 g ai/ha Preemergence
  Plant response rating (0 to 100 scale), Foxtail, Giant: 10
[4]; 125 g ai/ha Preemergence
  Plant response rating (0 to 100 scale), Foxtail, Giant: 90
Corn (Zea mays) [5]; 31 g ai/ha Preemergence
  Plant response rating (0 to 100 scale), Corn: 0
Corn (Zea mays) [5]; 125 g ai/ha Preemergence
  Plant response rating (0 to 100 scale), Corn: 50
[6]; 31 g ai/ha Postemergence
  Foxtail, Giant plant response rating: 30
[6]; 125 g ai/ha Postemergence
  Foxtail, Giant plant response rating: 90
[7]; 31 g ai/ha Preemergence
  Plant response rating (0 to 100 scale), Oat, Wild: 0
[7]; 125 g ai/ha Preemergence
  Plant response rating (0 to 100 scale), Oat, Wild: 90
[8]; 31 g ai/ha Postemergence
  Ryegrass, Italian plant response rating: 0
[8]; 125 g ai/ha Postemergence
  Ryegrass, Italian plant response rating: 70
[9]; 31 g ai/ha Postemergence
  Horseweed plant response rating: 80
[9]; 125 g ai/ha Postemergence
  Horseweed plant response rating: 90
[10]; 31 g ai/ha Preemergence
  Plant response rating (0 to 100 scale), Ryegrass, Italian: 60
[10]; 125 g ai/ha Preemergence
  Plant response rating (0 to 100 scale), Ryegrass, Italian: 100
[11]; 31 g ai/ha Postemergence
  Goosegrass plant response rating: 60
[11]; 125 g ai/ha Postemergence
  Goosegrass plant response rating: 90
[12]; 31 g ai/ha Preemergence
  Plant response rating (0 to 100 scale), Ragweed: 60
[12]; 125 g ai/ha Preemergence
  Plant response rating (0 to 100 scale), Ragweed: 70
Kochia (Bassia scoparia) [13]; 31 g ai/ha Postemergence
  Kochia plant response rating: 20
Kochia (Bassia scoparia) [13]; 125 g ai/ha Postemergence
  Kochia plant response rating: 50
[14]
  Plant response rating, Sedge, Umbrella: 98
[15]; 31 g ai/ha Preemergence
  Plant response rating (0 to 100 scale), Pigweed, Palmer: 30
[15]; 125 g ai/ha Preemergence
  Plant response rating (0 to 100 scale), Pigweed, Palmer: 90
[16]; 31 g ai/ha Preemergence
  Plant response rating (0 to 100 scale), Wheat: 60
[16]; 125 g ai/ha Preemergence
  Plant response rating (0 to 100 scale), Wheat: 90
Soybean (Glycine max) [17]; 31 g ai/ha Preemergence
  Plant response rating (0 to 100 scale), Soybean: 20
Soybean (Glycine max) [17]; 125 g ai/ha Preemergence
  Plant response rating (0 to 100 scale), Soybean: 40
Soybean (Glycine max) [18]; 31 g ai/ha Postemergence
  Soybean plant response rating: 50
Soybean (Glycine max) [18]; 125 g ai/ha Postemergence
  Soybean plant response rating: 60
[19]; 31 g ai/ha Postemergence
  Blackgrass plant response rating: 20
[19]; 125 g ai/ha Postemergence
  Blackgrass plant response rating: 60
Corn (Zea mays) [20]; 31 g ai/ha Postemergence
  Corn plant response rating: 20
Corn (Zea mays) [20]; 125 g ai/ha Postemergence
  Corn plant response rating: 60
[21]; 31 g ai/ha Postemergence
  Pigweed, Palmer plant response rating: 40
[21]; 125 g ai/ha Postemergence
  Pigweed, Palmer plant response rating: 70
[22]
  Plant response rating, Ducksalad: 70
[23]; 31 g ai/ha Postemergence
  Ragweed plant response rating: 70
[23]; 125 g ai/ha Postemergence
  Ragweed plant response rating: 90
Rice (Oryza sativa)
  Plant response rating, Rice: 25
Kochia (Bassia scoparia) [24]; 31 g ai/ha Preemergence
  Plant response rating (0 to 100 scale), Kochia: 0
Kochia (Bassia scoparia) [24]; 125 g ai/ha Preemergence
  Plant response rating (0 to 100 scale), Kochia: 50
[25]
  Plant response rating, Barnyardgrass: 40
